Assay results taken from PubChem BioAssay AID2305 (GlaxoSmithKline (GSK), 2010).

Each compound was assayed on P. falciparum 3D7 growth, pLDH absorbance (assay: P. falciparum 3D7 growth inhibition, dose response, strain 3D7 (AID 2305)).

| SMILES | IC50 [nM] |
| --- | --- |
| COc1ccc(CNC2Cc3ccccc3C2)cc1-c1ccc(S(=O)(=O)NCCN2CCCC2)cc1 | 580 |
| NC(N)=NC(=O)Nc1cc(F)c(Cl)c(Cl)c1 | 500 |
| O=C(N[C@@H](Cc1ccccc1)C(=O)NCCN1CCCC1)c1ccc(O)c(-c2ccc(Cl)c(Cl)c2)c1 | 800 |
| O=C(C=Cc1ccc(Cl)c(Cl)c1)NCCCCCN1CCC(CCCNC(=O)[C@@H]2C[C@H]2c2ccccc2)CC1 | 770 |
| CCOc1c(CNCCCNc2cc(=O)c3ccccc3[nH]2)cc(Br)cc1OC | 1160 |
| Cc1ccc(Nc2ccnc3cc(-c4nccs4)ccc23)cc1C(O)c1ccccc1 (stereo not drawn) | 740 |
| Cc1ccc(N/C(N)=N/c2ncccc2OCc2c(F)cccc2Cl)cc1 | 1190 |
| Cc1noc(C)c1-c1cccc(CNCc2cccc(-c3ccc(-c4nc5ccccc5[nH]4)s3)c2)c1 | 200 |
| CCN(CC)CCN(Cc1ccc(-c2ccc(C(F)(F)F)cc2)cc1)C(=O)Cn1cc(CCCCc2cccc(F)c2F)c(=O)c2ccccc21 | 880 |
| C=C1C[C@@H](n2cnc3c(NC(=O)c4ccccc4)ncnc32)[C@@H](F)[C@@H]1OC(c1ccccc1)(c1ccccc1)c1ccccc1 | 140 |
| Cn1c(=O)c2nc(-c3ccc(Cl)cc3)nnc2n(CCCC#N)c1=O | 150 |
| Cn1cnc2nc(NCCc3ccccc3)nc(NCc3cccc4ccccc34)c21 | 330 |
| OC1CCCN(Cc2ccc(-c3cccc(-c4nc5ccc(F)cc5[nH]4)c3)cc2)C1 (stereo not drawn) | 870 |
| CCOC(=O)CCCOc1cc(Cc2cnc(N)nc2N)cc(OC)c1OC | 240 |
| CCOc1cc(C(=O)NC2CC(C)(C)N(C)C(C)(C)C2)ccc1-c1nc2cc(Cl)c(Cl)cc2[nH]1 | 860 |
| O=C(Nc1cccc(Cl)c1)N(CCCn1ccnc1)Cc1csc(-c2ccc(CNCc3ccccc3)cc2)n1 | 540 |
| CN(C)CCNCc1ccc(-c2ccc(-c3nc4ccccc4[nH]3)s2)cc1 | 570 |
| Cc1c(CCNC(=O)CCCN2CC(C)CC(C)C2)c2ccccc2n1C (stereo not drawn) | 1270 |
| CC(Cc1ccc(OCC(=O)NCC2CCN(CCc3cccc(Cl)c3)CC2)cc1)NCCc1cccc(Cl)c1 (stereo not drawn) | 660 |
| CN1CCN(c2ccc(Nc3c(C(N)=O)cnc4cc(-c5ccoc5)ccc34)cc2C(F)(F)F)CC1 | 780 |
| Fc1cccc(COc2ccc(Nc3ncnc4sc(C#CC5CCCCN5)cc34)cc2Cl)c1 (stereo not drawn) | 540 |
| O=C(/C=C/c1ccc(Cl)c(Cl)c1)NCCCCCN1CCC(CCNC(=O)Cc2ccc(Cl)cc2)CC1 | 1160 |
| C[C@H](Cc1ccc(OCCCCCCOc2ccc(C[C@@H](C)NC(=O)[C@H](O)c3cccc(Cl)c3)cc2)cc1)NC[C@H](O)c1cccc(Cl)c1 | 380 |

| SMILES | IC50 [nM] |
| --- | --- |
| COc1ccc(NC(=O)Nc2cc(C)nc3cccnc23)cc1Cn1ccnc1 | 740 |
| Cc1ccc(-c2nc3ccccc3o2)cc1NCc1cc(Cc2ccccc2)ccc1O | 1030 |
| Cc1csc2nc(-c3ccccn3)nc(Nc3ccncn3)c12 | 790 |
| COc1ccc2ncc(C#N)c(CCN3C[C@H](CNCc4ccccc4)[C@H](O)C3)c2n1 | 1060 |
| O=C(Nc1cccc(-c2cccc(-c3nc4ccccc4[nH]3)c2)c1)c1cccnc1 | 650 |
| O=C(Nc1cccc(-c2cccc(-c3nc4ccccc4[nH]3)c2)c1)c1ccncc1 | 480 |
| O=S(=O)(NCCN1CCCC1)c1ccc(-c2cccc(CNCc3ccc(F)cc3)c2)s1 | 760 |
| c1ccc(CNc2nc(NCCc3cnc[nH]3)nc(N3CCCC4CCCCC43)n2)cc1 (stereo not drawn) | 830 |
| CN(C)CCn1cc(C(=O)c2cc(Cl)ccc2O)cc1-c1nc2ccccc2c(=O)[nH]1 | 630 |
| COc1ccc2nccc(NN=Cc3ccc([N+](=O)[O-])cc3)c2c1 | 710 |
| Cc1sc(N2CCN(C)CC2)nc1C(=O)Nc1ccc(F)cc1C(F)(F)F | 1070 |
| O=C(Nc1ccc(C(=O)Oc2cccc3ccccc23)cc1)N[C@@H](Cc1ccc(O)cc1)C(=O)NC1CCN(Cc2ccc(O)cc2)C1 (stereo partly drawn) | 910 |
| N#Cc1cnc(Nc2ccc(Oc3ccccc3)cc2)nc1Nc1cccc(S(N)(=O)=O)c1 | 550 |
| O=C(/C=C/c1c[nH]c2ccccc12)NCCCCCN1CCC(c2c[nH]c3ccccc23)CC1 | 930 |
| Cc1nc2ccc([N+](=O)[O-])cc2c(=O)n1OCc1ccccc1 | 210 |
| N#Cc1cncc(-c2nc3c(N4CCC(Cc5ccccc5)CC4)cccc3n2CCNCc2ccccc2)c1 | 570 |
| O=C(/C=C/c1ccc(Cl)c(Cl)c1)NCCCCCN1CCCC(CCCNC(=O)Nc2ccc(C(F)(F)F)cc2)C1 (stereo not drawn) | 530 |
| CC(C)(CNC(=O)C1CCN(Cc2ccc(Cl)cc2)CC1)c1nc(-c2ccc(Cl)c(O)c2)c(-c2ccncc2)[nH]1 | 620 |
| COc1cccc(Nc2nc(C)cc(NCc3ccc(-c4c(C)noc4C)cc3)n2)c1 | 880 |
| O=C(Nc1cncc(NC(=O)c2ccc(Cl)c(Cl)c2)c1)c1ccc(Cl)c(Cl)c1 | 730 |
| COc1ccc2nc(SC(C)C(=O)c3c[nH]c4ccccc34)[nH]c2c1 (stereo not drawn) | 1280 |
| Fc1cccc(Cn2ncc3cc(Nc4ncnc5sc(C#Cc6ncc[nH]6)cc45)ccc32)c1 | 1800 |
| C=Cc1c(C2CCN(CCCCNC(=O)c3ccc(-c4ccc(C#N)cc4)cc3)CC2)ccc2c1CCCC2 | 880 |

| SMILES | IC50 [nM] |
| --- | --- |
| Fc1ccc2nc(-c3cccc(-c4ccc(CN5CCC(CCN6CCCCC6)CC5)cc4)c3)[nH]c2c1 | 140 |
| CC1(C)OC[C@]2(C)[C@@H](CC[C@]3(C)C4=CC(=O)CCC4CC[C@@H]23)O1 (stereo partly drawn) | 280 |
| O=C(Nc1ccc(OC2CCN(Cc3ccsc3)CC2)c(Cl)c1)c1ccco1 | 780 |
| O[C@@H](c1cccc2ccccc12)[C@@H]1CN(CCc2ccccc2)CC[C@@]1(O)c1ccccc1 | 140 |
| Cc1[nH]c(C)c(-c2ccc(Cl)cc2Cl)c(=O)c1Br | 1010 |
| Cc1cccc2[nH]c(-c3ccc(-c4ccc(CNCC5CCCO5)cc4)cc3)nc12 (stereo not drawn) | 680 |
| Oc1ccc2[nH]cc(C3CCN(CCC(c4ccccc4)c4ccccc4)CC3)c2c1 | 990 |
| COc1ccc(NC(=O)[C@H](Cc2ccccc2)Nc2cc(C)nc(NCCc3ccccc3OC)n2)cc1 | 530 |
| CCc1cccc(NC(=O)/C=C/c2ccc3c(c2)CN(C)CC3)c1 | 770 |
| CN(C)CCCN1CCN(C(=O)c2cc3cc(-c4ccccc4)ccc3n2S(=O)(=O)c2ccccc2)CC1 | 120 |
| Cc1nc(-c2cccc(Nc3ccnc4cc(-c5nccs5)ccc34)c2)no1 | 320 |
| Cc1ccc(C)c(CN2CCC(CNC(=O)c3cc4ccc5cccnc5c4[nH]3)CC2)c1 | 990 |
| COc1ccc(Cl)cc1NC(=O)Nc1cc(C)nc2ccccc12 | 290 |
| CC(C)(C)c1ccc(CNC(=O)c2ccc(-c3nc4ccc(Cl)cc4[nH]3)cc2)cc1 | 820 |
| NS(=O)(=O)c1ccc(CNC(=O)c2cnc3c(O)cccc3c2Nc2cccc(NC(=O)c3ccc(Cl)c(Cl)c3)c2)cc1 | 1720 |
| CNC(=O)c1cncc(/C=C/c2ccccc2S(N)(=O)=O)c1 | 690 |
| CC1CN(c2ccc(NC(=O)c3ccsc3)cc2C(=O)N2CCN(Cc3ccc(C(C)(C)C)cc3)CC2)CC(C)O1 (stereo not drawn) | 870 |
| CC(=O)N1c2ccccc2C(C)=CC1(C)C | 940 |
| CS(=O)(=O)c1ccc(CCNCc2ccc(-c3ccc(CN(C(=O)c4cccc(C#N)c4)C4CCN(Cc5ccccc5)CC4)cc3)nc2)cc1 | 980 |
| COc1cc(C(=O)NCCCN2CCN(c3cc(Cl)ccc3OC)CC2)ccc1-c1nc2cc(Cl)c(Cl)cc2[nH]1 | 730 |
| CCN1CCN(c2cc(C)c3cc(NC(=O)c4cccc([N+](=O)[O-])c4)ccc3n2)CC1 | 520 |
| O=C(NCCCN1CCC(N2CCCCC2)CC1)C1=Cc2cc(Br)ccc2OC1 | 850 |
